The values below come from ChEMBL document CHEMBL3779859, “Synergistic activity of a short lipidated antimicrobial peptide (lipoAMP) and colistin or tobramycin against Pseudomonas aeruginosa from cystic fibrosis patients” (Medchemcomm, 2016).

≈ marks a conversion by molar mass, not a printed value. Calls of active or inactive are those of the source. The rule behind the calls is not given here. Peptide text beside a SMILES is read from it. * marks the point of attachment. Decanoyl = CCCCCCCCCC(=O)*

Series [1] concerns Pseudomonas aeruginosa. Briefly: Antibacterial activity against Pseudomonas aeruginosa Clone C clinical isolate after 18 to 22 hrs by checkerboard method in presence of colistin. The series is classed as functional.
For series [2], the system named is Pseudomonas aeruginosa. The experiment in a line: Antibacterial activity against Pseudomonas aeruginosa PAO1 clinical isolate assessed as delay in growth rate in exponential phase of bacterial growth curve at 4 to 32 ug/ml measured every 15 mins by microtiter plate reader method. The series is classed as functional, organism-based.
Series [3] deals with Pseudomonas aeruginosa. Briefly: Antibacterial activity against Pseudomonas aeruginosa KD491 clinical isolate assessed as inhibition of biofilm formation at 4 ug/ml after 18 to 22 hrs by crystal violet staining-based polystyrene microtiter plate reader method. The series is classed as functional.
In series [4] the test system is Pseudomonas aeruginosa. Briefly: Antibacterial activity against Pseudomonas aeruginosa Clone C clinical isolate assessed as inhibition of biofilm formation at 32 ug/ml after 18 to 22 hrs by crystal violet staining-based polystyrene microtiter plate reader method in presence of 2 ug/ml colistin. It counts as functional.
Series [5] relates to Pseudomonas aeruginosa. The experiment in a line: Antibacterial activity against Pseudomonas aeruginosa PAO1 clinical isolate assessed as inhibition of biofilm formation at 4 ug/ml after 18 to 22 hrs by crystal violet staining-based polystyrene microtiter plate reader method in presence of 0.5 ug/ml colistin. It counts as functional, organism-based.
Series [6] has as its system Pseudomonas aeruginosa. Briefly: Antibacterial activity against Pseudomonas aeruginosa VW1633 clinical isolate after 16 to 20 hrs by microdilution assay. The series is classed as functional. For orientation: Dilution methods test growth across graded concentrations, often in twofold steps.
The subject of series [7] is Pseudomonas aeruginosa. The experiment in a line: Antibacterial activity against Pseudomonas aeruginosa Clone C clinical isolate assessed as delay in growth rate in exponential phase of bacterial growth curve at 8 to 16 ug/ml measured every 15 mins by microtiter plate reader method. The series is classed as functional, organism-based.
Series [8] relates to Pseudomonas aeruginosa. Briefly: Toxicity in Pseudomonas aeruginosa KD491 clinical isolate assessed as inhibition of planktonic cell growth at 2 to 4 ug/ml after 18 to 22 hrs by microtiter plate reader method. The series is classed as organism-based. As to conditions: in vivo.
The test system of series [9] is Pseudomonas aeruginosa. Briefly: Antibacterial activity against Pseudomonas aeruginosa KD491 clinical isolate after 16 to 20 hrs by microdilution assay. It counts as functional.
In series [10] the test system is Pseudomonas aeruginosa. Briefly: Antibacterial activity against Pseudomonas aeruginosa LESB58 clinical isolate after 18 to 22 hrs by checkerboard method in presence of colistin. The series is classed as functional.
Series [11] deals with Pseudomonas aeruginosa. Briefly: Antibacterial activity against Pseudomonas aeruginosa Clone C clinical isolate after 18 to 22 hrs by checkerboard method in presence of tobramycin. It counts as functional.
Series [12] deals with Pseudomonas aeruginosa. The experiment in a line: Antibacterial activity against Pseudomonas aeruginosa VW1471 clinical isolate after 16 to 20 hrs by microdilution assay. The series is classed as functional.
Series [13] deals with Pseudomonas aeruginosa. Briefly: Antibacterial activity against Pseudomonas aeruginosa KD491 clinical isolate assessed as inhibition of biofilm formation at 8 ug/ml after 24 hrs by propidium iodide staining-based confocal laser microscopy. It counts as functional, organism-based.
In series [14] the test system is Pseudomonas aeruginosa. The experiment in a line: Antibacterial activity against Pseudomonas aeruginosa VW1538 clinical isolate after 16 to 20 hrs by microdilution assay. The series is classed as functional.
The subject of series [15] is Pseudomonas aeruginosa. Briefly: Antibacterial activity against Pseudomonas aeruginosa LESB58 clinical isolate after 18 to 22 hrs by checkerboard method in presence of tobramycin. The series is classed as functional.
Series [16] has as its system Pseudomonas aeruginosa. The experiment in a line: Antibacterial activity against Pseudomonas aeruginosa KD557 clinical isolate after 16 to 20 hrs by microdilution assay. It counts as functional.
Series [17] concerns Pseudomonas aeruginosa. The experiment in a line: Antibacterial activity against Pseudomonas aeruginosa VW1485 clinical isolate after 16 to 20 hrs by microdilution assay. The series is classed as functional.
Series [18] relates to Pseudomonas aeruginosa. Briefly: Antibacterial activity against Pseudomonas aeruginosa VW1501 clinical isolate after 16 to 20 hrs by microdilution assay. The series is classed as functional.
In series [19] the test system is Pseudomonas aeruginosa. The experiment in a line: Antibacterial activity against Pseudomonas aeruginosa Clone C clinical isolate assessed as inhibition of biofilm formation at 8 ug/ml after 24 hrs by propidium iodide staining-based confocal laser microscopy. It counts as functional, organism-based.
The subject of series [20] is Pseudomonas aeruginosa. Briefly: Antibacterial activity against Pseudomonas aeruginosa VW178 clinical isolate after 16 to 20 hrs by microdilution assay. The series is classed as functional.
Series [21] has as its system Pseudomonas aeruginosa. Briefly: Antibacterial activity against Pseudomonas aeruginosa Clone C clinical isolate assessed as growth inhibition at 16 ug/ml measured every 15 mins by microtiter plate reader method in presence of […] ug/ml tobramycin. The series is classed as functional, organism-based.
Series [22] deals with Pseudomonas aeruginosa. The experiment in a line: Antibacterial activity against Pseudomonas aeruginosa LES431 clinical isolate after 16 to 20 hrs by microdilution assay. It counts as functional.
Series [23] relates to Pseudomonas aeruginosa. Briefly: Antibacterial activity against Pseudomonas aeruginosa LESB58 clinical isolate after 16 to 20 hrs by microdilution assay. It counts as functional.

One may read the inhibition as the percentage by which the read-out fell short of the control. Usually MIC stands for the lowest concentration that inhibits growth of the organism. Take `CCCCCCCCCC(=O)NCCCC[C@H](NC(=O)[C@H](Cc1c[nH]c2ccccc12)NC(=O)[C@H](CCCNC(=N)N)NC(=O)[C@H](Cc1c[nH]c2ccccc12)NC(=O)[C@H](CCCNC(=N)N)NC(=O)[C@H](Cc1c[nH]c2ccccc12)NC(=O)[C@@H](N)CCCNC(=N)N)C(=O)O` (H-RWRWRWK(Decanoyl)-OH): the “fractional inhibitory concentration index (FICI)” value was determined as 0.5 in the series on Pseudomonas aeruginosa [1], 0.375 in the series on Pseudomonas aeruginosa [10], 0.5 in the series on Pseudomonas aeruginosa [11] and 0.5 in the series with Pseudomonas aeruginosa [15]. Also, the outcome with Pseudomonas aeruginosa [2] and with Pseudomonas aeruginosa [7] was Active. The inhibition at 4 µg/mL in the series with Pseudomonas aeruginosa [3] was 52%. For the same compound, the “inhibition (INH)” value in the series on Pseudomonas aeruginosa [4] is recorded as 70%. The inhibition result in the series with Pseudomonas aeruginosa [5], with Pseudomonas aeruginosa [13] and in the series with Pseudomonas aeruginosa [19] was “inactive” throughout. Also, the MIC with Pseudomonas aeruginosa [6] came to 16 µg/mL (≈ 12.1 µM); with Pseudomonas aeruginosa [9], 16 µg/mL (≈ 12.1 µM); against Pseudomonas aeruginosa [12], 64 µg/mL (≈ 48.2 µM); in the series on Pseudomonas aeruginosa [14] it was 64 µg/mL (≈ 48.2 µM); with Pseudomonas aeruginosa [16], 256 µg/mL (≈ 193 µM); against Pseudomonas aeruginosa [17], 256 µg/mL (≈ 193 µM). The MIC against Pseudomonas aeruginosa [18] was found to be 128 µg/mL (≈ 96.4 µM); in the series with Pseudomonas aeruginosa [20] it was 32 µg/mL (≈ 24.1 µM); with Pseudomonas aeruginosa [22] it was 32 µg/mL (≈ 24.1 µM); in the series with Pseudomonas aeruginosa [23] it was 128 µg/mL (≈ 96.4 µM). Also, in the series on Pseudomonas aeruginosa [8], the Activity entry is “Non-toxic”. Further, the “growth inhibition (GI)” value with Pseudomonas aeruginosa [21] was “Active”.
